Experimental data reported in patent publication US4206156A, “Hydroxyaminohydrocarbonphosphonic acids” (Fujisawa Pharmaceutical Company, Limited, priority 1976, dated 1980).
Structures can show the parent of a compound that is named as a salt.

Experiments:
[1] = tested on: Salmonella paratyphi A-1015; assay: M.I.C., serial agar dilution, nutrient agar (inoculum 10^5 cells/ml); format: cell-based; conditions: Salmonella enterica, 37° C., 18 hours
Experimental: (§1) M.I.C. test was conducted by an usual serial agar dilution method, (inoculum: 10^5 cells/ml.), using a nutrient agar which was incubated at 37° C. for 18 hours. M.I.C. value is expressed as the minimum concentration of the monopotassium salt of 3-(N-formyl-N-hydroxyamino)-trans-1-propenylphosphonic acid (mcg/ml.) which inhibits growth of microorganisms.

[2] = tested on: Citrobacter freundii 1381-3; assay: as above; format: cell-based; conditions: 13813, 37° C., 18 hours
Experimental: as §1

Shigella sonnei I EW33 [3] = assay: as above; format: cell-based; conditions: IEW33, 37° C., 18 hours
Experimental: as §1

[4] = tested on: Proteus vulgaris IAM 1025; assay: as above; format: cell-based; conditions: IAM1025, 37° C., 18 hours
Experimental: as §1

[5] = tested on: Enterobacter cloacae 1401-4; assay: as above; format: cell-based; conditions: 14014, 37° C., 18 hours
Experimental: as §1

Proteus morganii 1433-2 [6] = assay: as above; format: cell-based; conditions: Morganella morganii, 14332, 37° C., 18 hours
Experimental: as §1

[7] = tested on: Pseudomonas aeruginosa IAM 1095; assay: as above; format: cell-based; conditions: IAM1095, 37° C., 18 hours
Experimental: as §1

[8] = tested on: Salmonella enteritidis 1891; assay: as above; format: cell-based; conditions: Salmonella enterica, 37° C., 18 hours
Experimental: as §1

[9] = tested on: Enterobacter aerogenes 1402-10; assay: as above; format: cell-based; conditions: Klebsiella aerogenes, 140210, 37° C., 18 hours
Experimental: as §1

Proteus rettgeri 1434-3 [10] = assay: as above; format: cell-based; conditions: Providencia rettgeri, 14343, 37° C., 18 hours
Experimental: as §1

[11] = tested on: Proteus mirabilis 1432-75; assay: as above; format: cell-based; conditions: 143275, 37° C., 18 hours
Experimental: as §1

Sarcina lutea PCI 1001 [12] = assay: as above; format: cell-based; conditions: Micrococcus luteus, PCI1001, 37° C., 18 hours
Experimental: as §1

[13] = tested on: Bacillus subtilis ATCC6633; assay: as above; format: cell-based; conditions: 37° C., 18 hours
Experimental: as §1

Shigella flexneri IaEW8 [14] = assay: as above; format: cell-based; conditions: 37° C., 18 hours
Experimental: as §1

[15] = tested on: Klebsiella pneumoniae NCTC 418; assay: as above; format: cell-based; conditions: NCTC418, 37° C., 18 hours
Experimental: as §1

[16] = tested on: Salmonella typhimurium 1406; assay: as above; format: cell-based; conditions: Salmonella enterica, 37° C., 18 hours
Experimental: as §1

[17] = tested on: Serratia marcescens 1421-4; assay: as above; format: cell-based; conditions: 14214, 37° C., 18 hours
Experimental: as §1

[18] = tested on: Escherichia coli 1341-18(R^+); assay: as above; format: cell-based; conditions: 37° C., 18 hours
Experimental: as §1

[19] = tested on: Proteus inconstans 1436-21; assay: as above; format: cell-based; conditions: Providencia alcalifaciens, 143621, 37° C., 18 hours
Experimental: as §1

Salmonella typhi 0-901 [20] = assay: as above; format: cell-based; conditions: Salmonella enterica, 37° C., 18 hours
Experimental: as §1

[21] = tested on: Staphylococcus aureus FDA209PJC-1; assay: as above; format: cell-based; conditions: FDA209PJC1, 37° C., 18 hours
Experimental: as §1

[22] = tested on: pathogenic microorganisms; conditions: in words; from work filed as U.S. application Ser. No. 819,551; cited from earlier work
Acute toxicity, rat = conditions: in vivo, male, observed one week
Text: (§2) Litchfield-Wilcoxon method

Acute toxicity, mouse = assay: Acute toxicity, mouse; parameters: species or system Mouse (ICR-strain); conditions: in vivo, observed one week
Text: Male and Female mice of ICR-strain, aged 6 weeks were used.
as §2

[23] = tested on: Pseudomonas aeruginosa 1101-76; assay: Protecting effect in experimental mice infections; format: in vivo, mice (ICR-strain); conditions: Pseudomonas aeruginosa 1101-76, 1.2 × 10^6 viable cells per mouse, survival 1 week
Experimental: Male mice of ICR-strain, aged 4 weeks and weighing 24±1 g., were used. Each experimental group consists of 8 animals.
A prescribed amount of pathogenic bacteria, suspended in 5% aqueous Mucin solution (0.5 ml.), was intraperitoneally injected into the test animals.
Subsequently, the above test compound in water (0.25 ml.) was administered to each of the test animals, subcutaneously three times at 0, 1, 3 hours or orally once at 1 hour after the infection of pathogenic bacteria, respectively.

[24] = tested on: Salmonella paratyphi A-1015; assay: M.I.C., serial agar dilution, nutrient agar (inoculum 10^6 cells/ml); format: cell-based; conditions: Salmonella enterica, 20 h
Experimental: (§3) M.I.C. test was conducted by the usual serial agar dilution method, (inoculum:10^6 cells/ml.), using a nutrient agar which was incubated at 37° C. for 20 hours. M.I.C. value is expressed as the minimum concentration of the monoammonium salt of 3-(N-formyl-N-hydroxyamino)-propylphosphonic acid (mcg/ml.) which inhibits growth of microorganisms.

[25] = tested on: Citrobacter freundii 1381-3; assay: as above; format: cell-based; conditions: 13813, 37° C., 20 hours
Experimental: as §3

Shigella sonnei I EW33 [26] = assay: as above; format: cell-based; conditions: IEW33, 37° C., 20 hours
Experimental: as §3

[27] = tested on: Bacillus substilis ATCC6633; assay: as above; format: cell-based; conditions: ATCC6633, 20 h
Experimental: as §3

[28] = tested on: Proteus vulgaris IAM 1025; assay: as above; format: cell-based; conditions: IAM1025, 37° C., 20 hours
Experimental: as §3

[29] = tested on: Enterobacter cloacae 1401-4; assay: as above; format: cell-based; conditions: 14014, 37° C., 20 hours
Experimental: as §3

Proteus morganii 1433-2 [30] = assay: as above; format: cell-based; conditions: Morganella morganii, 14332, 37° C., 20 hours
Experimental: as §3

[31] = tested on: Pseudomonas aeruginosa IAM 1095; assay: as above; format: cell-based; conditions: IAM1095, 37° C., 20 hours
Experimental: as §3

[32] = tested on: Salmonella enteritidis 1891; assay: as above; format: cell-based; conditions: Salmonella enterica, 37° C., 20 hours
Experimental: as §3

[33] = tested on: Staphylococcus aureus FDA209P JC-1; assay: as above; format: cell-based; conditions: 37° C., 20 hours
Experimental: as §3

[34] = tested on: Escherichia coli NIHJ JC-2; assay: as above; format: cell-based; conditions: NIHJJC2, 37° C., 20 hours
Experimental: as §3

[35] = tested on: Enterobacter aerogenes 1402-10; assay: as above; format: cell-based; conditions: Klebsiella aerogenes, 140210, 37° C., 20 hours
Experimental: as §3

Proteus rettgeri 1434-3 [36] = assay: as above; format: cell-based; conditions: Providencia rettgeri, 14343, 37° C., 20 hours
Experimental: as §3

[37] = tested on: Escherichia coli 1341-18(R); assay: as above; format: cell-based; conditions: 20 h
Experimental: as §3

[38] = tested on: Proteus mirabilis 1432-75; assay: as above; format: cell-based; conditions: 143275, 37° C., 20 hours
Experimental: as §3

Sarcina lutea PCI 1001 [39] = assay: as above; format: cell-based; conditions: Micrococcus luteus, PCI1001, 37° C., 20 hours
Experimental: as §3

Shigella flexneri IaEW8 [40] = assay: as above; format: cell-based; conditions: 37° C., 20 hours
Experimental: as §3

[41] = tested on: Klebsiella pneumoniae NCTC 418; assay: as above; format: cell-based; conditions: NCTC418, 37° C., 20 hours
Experimental: as §3

[42] = tested on: Salmonella typhimurium 1406; assay: as above; format: cell-based; conditions: Salmonella enterica, 37° C., 20 hours
Experimental: as §3

[43] = tested on: Serratia marcescens 1421-4; assay: as above; format: cell-based; conditions: 14214, 37° C., 20 hours
Experimental: as §3

[44] = tested on: Proteus inconstans 1436-21; assay: as above; format: cell-based; conditions: Providencia alcalifaciens, 143621, 37° C., 20 hours
Experimental: as §3

Salmonella typhi 0-901 [45] = assay: as above; format: cell-based; conditions: Salmonella enterica, 20 h
Experimental: as §3

## O=CN(O)C/C=C/P(=O)(O)O [monopotassium salt of 3-(N-formyl-N-hydroxyamino)-trans-1-propenylphosphonic acid]
[1]
  MIC: 25 µg/mL
[2]
  MIC: 12.5 µg/mL
Shigella sonnei I EW33 [3]
  MIC: 25 µg/mL
[4]
  MIC: 1.56 µg/mL
[5]
  MIC: 12.5 µg/mL
Proteus morganii 1433-2 [6]
  MIC: > 100 µg/mL
[7]
  MIC: 1.56 µg/mL
[8]
  MIC: 6.25 µg/mL
[9]
  MIC: 50 µg/mL
Proteus rettgeri 1434-3 [10]
  MIC: 6.25 µg/mL
[11]
  MIC: 0.39 µg/mL
Sarcina lutea PCI 1001 [12]
  MIC: 0.2 µg/mL
[13]
  MIC: 6.25 µg/mL
Shigella flexneri IaEW8 [14]
  MIC: 50 µg/mL
[15]
  MIC: 100 µg/mL
[16]
  MIC: 12.5 µg/mL
[17]
  MIC: > 100 µg/mL
[18]
  MIC: 25 µg/mL
[19]
  MIC: 25 µg/mL
Salmonella typhi 0-901 [20]
  MIC: 0.78 µg/mL
[21]
  MIC: > 100 µg/mL

## CC(=O)N(O)CCCP(=O)(O)O [FR-900098, 3-(N-acetyl-N-hydroxyamino)propylphosphonic acid]
[22]
  antimicrobial activities: antimicrobial activities against various pathogenic microorganisms

## O=CN(O)CCCP(=O)(O)O [monosodium salt of 3-(N-formyl-N-hydroxyamino)propylphosphonic acid]
Acute toxicity, rat; oral, read-out: LD50, oral administration
  LD50 at 168 h: > 11000 mg/kg
Acute toxicity, rat; sc, subcutaneous, read-out: LD50, subcutaneous administration
  LD50 at 168 h: 8000 mg/kg
Acute toxicity, mouse; po, female, oral, read-out: LD50, oral administration
  LD50 at 168 h: > 11000 mg/kg
Acute toxicity, mouse; po, male, oral, read-out: LD50, oral administration
  LD50 at 168 h: 11000 mg/kg
Acute toxicity, mouse; sc, female, subcutaneous, read-out: LD50, subcutaneous administration
  LD50 at 168 h: 8270 mg/kg
Acute toxicity, mouse; sc, male, subcutaneous, read-out: LD50, subcutaneous administration
  LD50 at 168 h: 8050 mg/kg

## O=CN(O)CCCP(=O)(O)O [monoammonium salt of 3-(N-formyl-N-hydroxyamino)propylphosphonic acid]
[23]; orally once at 1 hour
  ED50, oral administration: 0.280 mg/mouse
[23]; s.c. three times at 0, 1, 3 hours
  ED50, subcutaneous administration: 0.228 mg/mouse
[24]
  MIC: 12.5 µg/mL
[25]
  MIC: 3.13 µg/mL
Shigella sonnei I EW33 [26]
  MIC: 100 µg/mL
[27]
  MIC: 6.25 µg/mL
[28]
  MIC: 3.13 µg/mL
[29]
  MIC: 6.25 µg/mL
Proteus morganii 1433-2 [30]
  MIC: > 800 µg/mL
[31]
  MIC: 0.78 µg/mL
[32]
  MIC: 0.39 µg/mL
[33]
  MIC: > 800 µg/mL
[34]
  MIC: 200 µg/mL
[35]
  MIC: 6.25 µg/mL
Proteus rettgeri 1434-3 [36]
  MIC: 1.56 µg/mL
[37]
  MIC: 12.5 µg/mL
[38]
  MIC: 6.25 µg/mL
Sarcina lutea PCI 1001 [39]
  MIC: ≤ 0.1 µg/mL
Shigella flexneri IaEW8 [40]
  MIC: 12.5 µg/mL
[41]
  MIC: 100 µg/mL
[42]
  MIC: 25 µg/mL
[43]
  MIC: 100 µg/mL
[44]
  MIC: 3.13 µg/mL
Salmonella typhi 0-901 [45]
  MIC: 0.39 µg/mL
